The values that follow come from PubChem BioAssay (NCI).

Values joined by “and” are separate entries in the source; they are usually repeats but may differ in a detail not shown here. Identical values can stand only once.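 Cultured in 96-well plates, cells were exposed to test compound for 48 hours across five concentrations. At the GI50, growth is halved. TGI is the concentration that stops growth completely.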

Among the test systems are SW-620 colon; CCRF-CEM leukemia; NCI/ADR-RES ovarian; UACC-62 melanoma; SN12C renal; RPMI-8226 leukemia; PC-3 prostate; SK-OV-3 ovarian; SF-295 CNS; NCI-H522 lung.
Common to all, as to test: NCI anticancer screen, dose series, 48 h

Regarding `CCN(Cc1nc2cc(C(F)(F)F)ccc2nc1-c1ccccc1)c1ccc(OC)c(OC)c1`, the GI50 in the assay on SW-620 colon is 16.6 µM; with CCRF-CEM leukemia it was 4.74 µM; in the assay on NCI/ADR-RES ovarian, 29.2 µM; in the assay on UACC-62 melanoma, 14.1 µM; with SN12C renal, 14.9 µM; with RPMI-8226 leukemia it was 2.51 µM. The GI50 with PC-3 prostate was 7.33 µM; with SK-OV-3 ovarian, 39.8 µM; in the assay with SF-295 CNS it was 15.7 µM; in the assay with NCI-H522 lung, 14.5 µM. For the same compound, the TGI in the assay on SW-620 colon is 36.5 µM; with CCRF-CEM leukemia, 24.7 µM; with NCI/ADR-RES ovarian it was greater than 100 µM; in the assay with UACC-62 melanoma, 27.7 µM; with SN12C renal, 29.6 µM; with RPMI-8226 leukemia it was 11.2 µM. For the same compound, the TGI was 22 µM in the assay on PC-3 prostate, greater than 100 µM in the assay with SK-OV-3 ovarian, 31.8 µM with SF-295 CNS and 34 µM in the assay with NCI-H522 lung.

With `CCn1c(-c2nonc2N)nc2c(C#CC(C)(C)O)nc(O[C@@H](CN)c3ccccc3)cc21`, the GI50 is 0.119 µM in the assay with SW-620 colon; 0.0554 µM in the assay on CCRF-CEM leukemia; 6.38 µM in the assay on NCI/ADR-RES ovarian; 0.361 µM with UACC-62 melanoma; 0.208 µM in the assay on SN12C renal; 0.645 µM in the assay with RPMI-8226 leukemia. The GI50 was 0.0858 µM in the assay with PC-3 prostate, 0.073 µM with SK-OV-3 ovarian, 0.0333 µM in the assay with SF-295 CNS and 0.0919 µM in the assay on NCI-H522 lung. Also, the TGI is 3.17 µM with SW-620 colon; 5.16 µM in the assay on CCRF-CEM leukemia; 25 µM with NCI/ADR-RES ovarian; 1.02 µM in the assay with UACC-62 melanoma; 2.82 µM in the assay on SN12C renal; 2.7 µM in the assay with RPMI-8226 leukemia. Also, the TGI stood at 9.94 µM with PC-3 prostate, 4.57 µM with SK-OV-3 ovarian, 1 µM in the assay with SF-295 CNS and 0.353 µM with NCI-H522 lung.

Consider `COc1ccc2c(c1OC)-c1c(c3ccc([N+](=O)[O-])cc3c(=O)n1CCCN=[N+]=[N-])C2=O`, for which the GI50 in the assay with SW-620 colon was 23.1 µM; with CCRF-CEM leukemia it was 2.04 µM; with NCI/ADR-RES ovarian, 12.2 µM; in the assay on UACC-62 melanoma, 4.59 µM; in the assay with SN12C renal, 11.5 µM; in the assay with RPMI-8226 leukemia, 5.18 µM. The GI50 with PC-3 prostate was 22 µM; with SK-OV-3 ovarian it was 19.4 µM; in the assay with SF-295 CNS, 3.11 µM; in the assay with NCI-H522 lung it was 3 µM. Moreover, the TGI in the assay with SW-620 colon was greater than 100 µM; in the assay with CCRF-CEM leukemia it was 17.1 µM; in the assay on NCI/ADR-RES ovarian, greater than 100 µM; in the assay with UACC-62 melanoma it was greater than 100 µM; with SN12C renal, greater than 100 µM; with RPMI-8226 leukemia, greater than 100 µM. For the same compound, the TGI with PC-3 prostate was greater than 100 µM; with SK-OV-3 ovarian, greater than 100 µM; in the assay on SF-295 CNS, 28.4 µM; in the assay with NCI-H522 lung, 51.7 µM.

With `CCCC[P+](c1ccccc1)(c1ccccc1)c1ccccc1`, the GI50 in the assay with SW-620 colon was 3.46 µM; with CCRF-CEM leukemia, 1.72 µM; with NCI/ADR-RES ovarian, greater than 100 µM; with UACC-62 melanoma it was 1.9 µM; with SN12C renal, 4.35 µM; with RPMI-8226 leukemia, 0.193 µM. Further, the GI50 was 1.16 µM in the assay with PC-3 prostate, 13.4 µM in the assay with SK-OV-3 ovarian, 5.29 µM with SF-295 CNS and 1.22 µM with NCI-H522 lung. Further, the TGI is greater than 100 µM with SW-620 colon; greater than 100 µM with CCRF-CEM leukemia; greater than 100 µM in the assay on NCI/ADR-RES ovarian; greater than 100 µM in the assay with UACC-62 melanoma; greater than 100 µM with SN12C renal; 0.869 µM in the assay on RPMI-8226 leukemia. The TGI with PC-3 prostate was 68.3 µM; in the assay on SK-OV-3 ovarian, greater than 100 µM; with SF-295 CNS, 37.3 µM; with NCI-H522 lung it was 6.85 µM.

Consider `O=C(NCCCNC(=O)OCc1ccc2c(Br)cc(Br)c(O)c2n1)OCc1ccc2c(Br)cc(Br)c(O)c2n1`, for which the GI50 in the assay with SW-620 colon, in the assay with CCRF-CEM leukemia, in the assay on NCI/ADR-RES ovarian, with UACC-62 melanoma, in the assay with SN12C renal and in the assay with RPMI-8226 leukemia was greater than 100 µM throughout. Also, the GI50 in the assay with PC-3 prostate, in the assay on SK-OV-3 ovarian, in the assay with SF-295 CNS and with NCI-H522 lung was greater than 100 µM each time. Also, the TGI in the assay on SW-620 colon, in the assay with CCRF-CEM leukemia, in the assay on NCI/ADR-RES ovarian, in the assay on UACC-62 melanoma, in the assay on SN12C renal and in the assay with RPMI-8226 leukemia was greater than 100 µM throughout. The TGI in the assay with PC-3 prostate, in the assay on SK-OV-3 ovarian, in the assay with SF-295 CNS and with NCI-H522 lung was greater than 100 µM in each case.

In the case of `CC(C)c1cc(CNc2nc(Nc3cc(C4CC4)[nH]n3)cc(N3CCN(C)CC3)n2)on1`, the TGI is > 10 µM and 10.8 µM in the assay with SW-620 colon; greater than 100 µM with CCRF-CEM leukemia; > 10 µM and 25.4 µM in the assay on NCI/ADR-RES ovarian; > 10 µM and 2.35 µM in the assay on UACC-62 melanoma; > 10 µM and 15.1 µM in the assay with SN12C renal; > 10 µM and 5.76 µM in the assay with RPMI-8226 leukemia. For the same compound, the TGI was > 10 µM and 7.02 µM in the assay with PC-3 prostate; 4.45 µM and 5.4 µM in the assay on SK-OV-3 ovarian; > 10 µM and 2.77 µM in the assay on SF-295 CNS; 4.3 µM and 3.83 µM with NCI-H522 lung. For the same compound, the GI50 in the assay with CCRF-CEM leukemia was 4.62 µM and 1.02 µM; in the assay with NCI/ADR-RES ovarian, > 10 µM and 6.84 µM; in the assay with RPMI-8226 leukemia, 8.33 µM and 1.7 µM; with SK-OV-3 ovarian, 0.904 µM and 0.335 µM; with NCI-H522 lung it was 0.422 µM and 0.992 µM.

On to `CCOC(=O)CNC(=O)CCCn1c(=O)c2c3ccccc3n(C)c2n2nnc(-c3ccccc3)c12`, for which the GI50 is greater than 50 µM with SW-620 colon; 26.5 µM in the assay on CCRF-CEM leukemia; greater than 50 µM in the assay with NCI/ADR-RES ovarian; 7.2 µM in the assay with UACC-62 melanoma; greater than 50 µM in the assay with SN12C renal; 10.7 µM in the assay on RPMI-8226 leukemia. The GI50 in the assay on PC-3 prostate was 8.59 µM; in the assay on SK-OV-3 ovarian it was 6.7 µM; with SF-295 CNS, 4.83 µM; in the assay with NCI-H522 lung, 6.49 µM. Moreover, the TGI is greater than 50 µM with SW-620 colon; greater than 50 µM in the assay on CCRF-CEM leukemia; greater than 50 µM in the assay with NCI/ADR-RES ovarian; 21.8 µM with UACC-62 melanoma; greater than 50 µM in the assay on SN12C renal; 33.9 µM in the assay with RPMI-8226 leukemia. Also, the TGI was greater than 50 µM in the assay on PC-3 prostate, 44 µM in the assay on SK-OV-3 ovarian, 17.4 µM in the assay on SF-295 CNS and 19.9 µM with NCI-H522 lung.
